Experimental data as given in publication PMC7479175, “Selection of Potent Inhibitors of Soluble Epoxide Hydrolase for Usage in Veterinary Medicine” (Frontiers in Veterinary Science, 2020).
Where two headings read alike, the source gives them in different places.

Legend:
[1] = system: horses with chronic laminitis; conditions: 0.1–1 mg/kg i.v., ref [11]–[13]; cited from earlier work
dogs with osteoarthritis = system: dogs with osteoarthritis; design: method as in PMID 31214021; conditions: ref [14]; cited from earlier work
[2] = Solubility of inhibitors in different solvents; assay type: physicochemical; conditions: thermodynamic from solid
Protocol: The un-dissolved compounds were filtered through a 0.22 μm centrifuge filter at 30 or 40°C and the supernatant further diluted 10-fold with methanol. The concentration of t-TUCB in the samples was determined by LC/MS/MS analysis as previously described ([15]).

O=C(Nc1ccc(OC(F)(F)F)cc1)N[C@H]1CC[C@H](Oc2ccc(C(=O)O)cc2)CC1 [1,728, trans-4-{4-[3-(4-trifluoromethoxy-phenyl)-ureido]-cyclohexyloxy}-benzoic acid]
adverse effects [1]: without observed adverse effects | reduction in pain [1]: significant and rapid reduction in pain | pain perception (dogs with osteoarthritis): able to reduce pain perception | solubility at 24 h ([2]; aqueous buffer, Phosphate Buffer (0.1 M pH 7.4), 30°C, read-out: Solubility): 0.011 mM | solubility at 24 h ([2]; aqueous buffer, Phosphate Buffer (0.1 M pH 7.4), 40°C, read-out: Solubility in mg/mL): 0.01 mg/mL | solubility at 24 h ([2]; aqueous with cosolvent or surfactant or cyclodextrin, Tween 80, 30°C, read-out: Solubility): 18 mM | solubility at 24 h ([2]; aqueous with cosolvent or surfactant or cyclodextrin, Tween 80, 40°C, read-out: Solubility): 34 mM | solubility at 24 h ([2]; oil or lipid, Oleic rich oil, 30°C, read-out: Solubility): 0.31 mM | solubility at 24 h ([2]; oil or lipid, Oleic rich oil, 30°C, read-out: Solubility in mg/mL): 0.13 mg/mL | solubility at 24 h ([2]; oil or lipid, Oleic rich oil, 40°C, read-out: Solubility in mg/mL): 0.1 mg/mL | solubility at 24 h ([2]; organic solvent or mixture, Carbitol, 30°C, read-out: Solubility): 83 mM | solubility at 24 h ([2]; organic solvent or mixture, Carbitol, 30°C, read-out: Solubility in mg/mL): 37 mg/mL | solubility at 24 h ([2]; organic solvent or mixture, DMSO, 30°C, read-out: Solubility): 299 mM | solubility at 24 h ([2]; organic solvent or mixture, DMSO, 30°C, read-out: Solubility in mg/mL): 131 mg/mL | solubility at 24 h ([2]; organic solvent or mixture, DMSO, 40°C, read-out: Solubility): 580 mM | solubility at 24 h ([2]; organic solvent or mixture, DMSO, 40°C, read-out: Solubility in mg/mL): 254 mg/mL | solubility at 24 h ([2]; organic solvent or mixture, Ethanol, 30°C, read-out: Solubility): 9 mM | solubility at 24 h ([2]; organic solvent or mixture, Ethanol, 30°C, read-out: Solubility in mg/mL): 4 mg/mL | solubility at 24 h ([2]; organic solvent or mixture, Ethanol, 40°C, read-out: Solubility): 32 mM | solubility at 24 h ([2]; organic solvent or mixture, Ethanol, 40°C, read-out: Solubility in mg/mL): 14 mg/mL | solubility at 24 h ([2]; organic solvent or mixture, Glycerol, 30°C, read-out: Solubility): 0.13 mM | solubility at 24 h ([2]; organic solvent or mixture, Glycerol, 30°C, read-out: Solubility in mg/mL): 0.06 mg/mL | solubility at 24 h ([2]; organic solvent or mixture, Glycerol, 40°C, read-out: Solubility): 0.41 mM | solubility at 24 h ([2]; organic solvent or mixture, Glycerol, 40°C, read-out: Solubility in mg/mL): 0.18 mg/mL | solubility at 24 h ([2]; organic solvent or mixture, PEG200, 30°C, read-out: Solubility): 195 mM | solubility at 24 h ([2]; organic solvent or mixture, PEG200, 30°C, read-out: Solubility in mg/mL): 85 mg/mL | solubility at 24 h ([2]; organic solvent or mixture, PEG200, 40°C, read-out: Solubility): 207 mM | solubility at 24 h ([2]; organic solvent or mixture, PEG200, 40°C, read-out: Solubility in mg/mL): 91 mg/mL | solubility at 24 h ([2]; organic solvent or mixture, PEG300, 40°C, read-out: Solubility): 254 mM | solubility at 24 h ([2]; organic solvent or mixture, PEG300, 40°C, read-out: Solubility in mg/mL): 111 mg/mL | solubility at 24 h ([2]; organic solvent or mixture, PEG400, 30°C, read-out: Solubility): 40 mM | solubility at 24 h ([2]; organic solvent or mixture, PEG400, 30°C, read-out: Solubility in mg/mL): 18 mg/mL | solubility at 24 h ([2]; organic solvent or mixture, PEG400, 40°C, read-out: Solubility): 57 mM | solubility at 24 h ([2]; organic solvent or mixture, PEG400, 40°C, read-out: Solubility in mg/mL): 25 mg/mL | solubility at 24 h ([2]; organic solvent or mixture, Propylene glycol, 30°C, read-out: Solubility): 9 mM | solubility at 24 h ([2]; organic solvent or mixture, Propylene glycol, 30°C, read-out: Solubility in mg/mL): 4 mg/mL | solubility at 24 h ([2]; organic solvent or mixture, Propylene glycol, 40°C, read-out: Solubility): 14 mM | solubility at 24 h ([2]; organic solvent or mixture, Propylene glycol, 40°C, read-out: Solubility in mg/mL): 6 mg/mL | solubility at 24 h ([2]; organic solvent or mixture, Tween 80, 30°C, read-out: Solubility in mg/mL): 8 mg/mL | solubility at 24 h ([2]; organic solvent or mixture, Tween 80, 40°C, read-out: Solubility in mg/mL): 15 mg/mL | solubility at 24 h ([2]; organic solvent or mixture, such as Carbitol and polyethylene glycol (PEG), read-out: solubility in numerous organic liquids used in the formulation of drugs): > 20 mg/mL
